≈ marks a conversion by molar mass, not a printed value.

A short description of data set [1]: HPLC-MS determination of Ro metabolites in plasma of tumour-bearing mice. It is filed as in vivo, C57BL/6J mice. The note with it: plasma after 15 days Ro 25 mg/kg intraperitoneal; for detection in plasma of Ro-treated tumour-bearing mice: HPLC-MS. The procedure:
B16F10 cells were cultured in DMEM containing 10% FBS. […] Normal and model mice were administered normal saline. […] The tumour inhibition rate was calculated.
Identification of the metabolites of Ro was done using the same HPLC Trap MS system as previously described. Briefly, an aliquot of 60 μL plasma samples was removed from the −80 °C storage and thawed under ambient temperature and mixed vigorously with 300 μL cold methanol. The supernatant was placed in a centrifuge tube (1500 μL) after 10 min of centrifugation at 10,000 rpm. The precipitate was washed three times using 100 μL cold methanol. All of the supernatants were combined and dried under nitrogen flow at ambient temperature. The residue was dissolved using 80 μL methanol (3 min of vortexing), and the solution was diluted in 240 μL pure water. The mixture was centrifuged at 10,000 rpm for 10 min. All of the supernatant was loaded onto a flash column (25 × 2 mm id, Chromolith; Merck, Darmstadt, Germany). This flash column was connected to an analytical column (50 × 2 mm id, Chromolith; Merck) for HPLC-MS analysis. The separation was conducted using a gradient mobile phase consisting of water (A, containing 0.01% ammonium hydroxide) and acetonitrile (B). The program of the mobile phase was as follows: 10% B for the first 5 min; then a linear gradient of 10–15% B for 5–7 min, 15–40% B for 7–40 min, and 40–70% B for 40–45 min; this composition was maintained for 45–60 min and then returned to the initial condition for 5 min. The flow rate was 0.2 mL/min. The method for the Trap MS detection was the same as previously described.

The test system of another data set is B16F10 melanoma tumour. The data set is described as follows: Tumour xenograft experiment in B16F10 tumour-bearing mice. It is filed as in vivo, C57BL/6J mice. The following applies: 15 days; for mean tumour weight: model group 1.50 g; for tumour growth (tumour volume): R1 25, IVa 25, E 5, CTX 20 mg/kg intraperitoneal, vs model group, p < 0.05. As for the experimental part:
(§1) An anti-tumour assay was conducted in a mouse xenograft model. B16F10 cells were cultured in DMEM containing 10% FBS. After the collection of cells, the cells were re-suspended in normal saline to the appropriate concentrations. Next, 0.1 mL of the B16F10 cell suspension (1 × 10^6 cells) was subcutaneously injected via the right axillary region of the C57BL/6J mice. The tumour-bearing mice were randomly divided into three groups (n = 6/group): model control group, positive control group, and Ro (25 mg/kg) administration group. […] Normal and model mice were administered normal saline. The mice in the positive control group received CTX (20 mg/kg). The successive intraperitoneal injection of drugs into the mice from the day after tumour inoculation and the body weights were monitored every 2 days. After 15 days, all mice were sacrificed, and tumours were taken out and measured as previously described. The thymus and spleen were also removed and weighed to calculate the thymus and spleen indices. The tumour inhibition rate was calculated. The blood samples were collected from the retrobulbar vessels and added into tubes containing heparin. Subsequently, plasma samples were prepared by centrifugation for 10 min at 3800 rpm and stored at −80 °C for HPLC-MS analysis.
A xenograft experiment was performed using the same method as described in Section 2.2. Briefly, after the mice were inoculated with tumour cells, they were randomly divided into […] (n = 6/group): model control group, positive control group (CTX, 20 mg/kg), R1 (25 mg/kg), IVa (25 mg/kg), and E (5 mg/kg) administration groups. […] Normal and model mice were administered normal saline. Drugs were intraperitoneally injected into the mice for 15 consecutive days. Tumour volumes were measured every 2 days, and tumour growth curves were plotted. At the end of the experiment, the mice were sacrificed, and the tumour weight and tumour growth inhibition rates were calculated.

Another data set concerns B16F10 melanoma cells. The data set is described as follows: MTT cell viability assay. Format: cell-based. The following applies: 24 h; for IC50: Mus musculus, B16-F10, MTT, read-out: half maximal inhibitory concentration (IC50). The procedure: In this study, Ro was dissolved in dimethyl sulfoxide (DMSO) and diluted in DMEM and then filtered using a 0.22 μm membrane. The final concentration of DMSO in cell culture medium was 0.1%, and 0.1% DMSO-treated cells were used as controls. The effect of Ro on B16F10 cell growth in vitro was performed using the MTT assay. Briefly, exponentially growing B16F10 (1 × 10^4 cells/well) cells were seeded onto 96-well plates and incubated for 24 h in complete medium. After 24 h incubation, the cells were treated with various concentrations of Ro (0, 1, 3, 10, 30, 100 μg/mL) for 24 h, and MTT (0.5%, 20 μL) was then added to each well and incubated for an additional 4 h at 37 °C. The formazan crystals were dissolved in DMSO (150 μL), and the absorbance at 490 nm was measured using a microplate reader (BioTek Epoch; BioTek, Winooski, VT, USA)
The metabolites (standard substance) of Ro were dissolved in the same manner as Ro. Briefly, IVa, R1, and E were dissolved in dimethyl sulfoxide (DMSO), diluted in DMEM, and then filtered using a 0.22 μm membrane. The final concentration of DMSO in cell culture medium was 0.1%, and 0.1% DMSO-treated cells were used as controls. The effects of IVa, R1, and E on B16F10 cell growth were evaluated using the MTT assay as previously described. The cells were treated with various concentrations of IVa (0, 1, 3, 10, 30, 100 μg/mL), R1 (0, 5, 10, 20, 30, 40 μg/mL), and E (0, 2, 4, 6 μg/mL) for 24 h. After incubation, MTT (0.5%, 20 μL) was added and incubated for 4 h at 37 °C. Then the supernatants were carefully removed, and 150 μL DMSO was added to each well. After 10 min of incubation and vibration, the absorbance was read at a wavelength of 490 nm. IC50 values were calculated using Probit Analysis with SPSS 22.0 (SPSS Inc., Chicago, IL, USA).
A general note: Tetrazolium dyes change colour on reduction, which living cells bring about.

Data set [2] relates to human umbilical vein endothelial cells (HUVECs). Put plainly: Tube formation assay on Matrigel. It is filed as cell-based. The following applies: 5 h incubation; IVa 1–100, R1 5–40, E 2–10 μg/mL. The procedure:
The tube formation assay was performed as previously described with some modifications. Matrigel (BD Biosciences, San Jose, CA, USA) was thawed overnight at 4 °C. Next, 50 μL Matrigel was coated on each well of the pre-chilled 96-well plates and then incubated at 37 °C for 1 h. HUVECs (5 × 10^4 cells/well) were seeded on the Matrigel and treated with various concentrations of Ro (0, 1, 3, 10, 30, 100 μg/mL), R1 (0, 5, 10, 20, 30, 40 μg/mL), IVa (0, 1, 3, 10, 30, 100 μg/mL), and E (0, 2, 4, 6, 8, 10 μg/mL). After incubation for 5 h, the formation of HUVEC tubular structures was captured using a microscope (Nikon eclipse Ti; Nikon, Tokyo, Japan). The tube length was quantified using Image-Pro Plus 6.0 software.

The conditions of data set [3]: CTX 20 mg/kg, Ro 25 mg/kg. As for the experimental part:
as §1

On to `CC1(C)CC[C@]2(C(=O)O)CC[C@]3(C)C(=CC[C@@H]4[C@@]5(C)CC[C@H](O)C(C)(C)[C@@H]5CC[C@]43C)[C@@H]2C1` [OA, oleanolic acid, reference compound], for which the “detection in plasma of Ro-treated tumour-bearing mice” value (shortened to “detection in plasma”) in data set [1] is on record as “not detected”.

In the data set on B16F10 melanoma tumour (25 mg/kg intraperitoneal), `CC1(C)CC[C@]2(C(=O)O)CC[C@]3(C)C(=CC[C@@H]4[C@@]5(C)CC[C@H](O[C@@H]6O[C@H](C(=O)O)[C@@H](O)[C@H](O)[C@H]6O[C@@H]6O[C@H](CO)[C@@H](O)[C@H](O)[C@H]6O)C(C)(C)[C@@H]5CC[C@]43C)[C@@H]2C1` [R1, zingibroside R1] yielded a tumour inhibition rate of 46.6% and a mean tumour weight of 0.80 g. Also, the “tumour growth (tumour volume)” value in the data set on B16F10 melanoma tumour is given as “significantly suppressed tumour growth”. Further, the IC50 with B16F10 melanoma cells is 24.5 µg/mL (≈ 30.8 µM). In data set [1], the “plasma signal intensity of R1 relative to E” value is given as around 100 fold, the “plasma signal intensity of R1 relative to IVa” value is on record as around 10 fold, the “plasma signal intensity of R1 relative to Ro” value is given as “approximately two-fold” and the “detection in plasma” value is recorded as “most abundant metabolite in the plasma”. The HUVEC tube formation result in data set [2] was “markedly inhibited”.

As for `O=P1(N(CCCl)CCCl)NCCCO1` (stereo not drawn) [CTX, cyclophosphamide, reference compound], in the data set with B16F10 melanoma tumour, the “tumour growth (tumour volume)” value is recorded as “significantly suppressed tumour growth”. Also, in data set [3] (after 15 days intraperitoneal), the “Organ Indices Spleen” value is on record as 2.98 ± 0.86 ×100, mg/g and the “Organ Indices Thymus” value is 0.56 ± 0.09 ×100, mg/g. In addition, the “Weight (g) After” value in data set [3] (body weight after 15 days intraperitoneal) is given as 22.27 ± 1.02 g. Also, the “Weight (g) Before” value in data set [3] (body weight before treatment) is on record as 22.29 ± 0.85 g.

In the data set with B16F10 melanoma tumour (25 mg/kg intraperitoneal), `CC1(C)CC[C@]2(C(=O)O[C@@H]3O[C@H](CO)[C@@H](O)[C@H](O)[C@H]3O)CC[C@]3(C)C(=CC[C@@H]4[C@@]5(C)CC[C@H](O[C@@H]6O[C@H](C(=O)O)[C@@H](O)[C@H](O)[C@H]6O)C(C)(C)[C@@H]5CC[C@]43C)[C@@H]2C1` [IVa, chikusetsusaponin IVa] registered a tumour inhibition rate of 64.7% and a mean tumour weight of 0.53 g. In the data set with B16F10 melanoma tumour, the “tumour growth (tumour volume)” value was “significantly suppressed tumour growth”. Besides, in the data set on B16F10 melanoma cells (100 µg/mL), the viability entry is on record as “slightly decreased”. The cytotoxic effects entry in the data set with B16F10 melanoma cells (1–30 µg/mL) is “no cytotoxic effects”. Further, the HUVEC tube formation result in data set [2] is listed as “markedly inhibited”.

In the data set with B16F10 melanoma tumour (5 mg/kg intraperitoneal), `CC1(C)CC[C@]2(C(=O)O)CC[C@]3(C)C(=CC[C@@H]4[C@@]5(C)CC[C@H](O[C@@H]6O[C@H](C(=O)O)[C@@H](O)[C@H](O)[C@H]6O)C(C)(C)[C@@H]5CC[C@]43C)[C@@H]2C1` [E, calenduloside E] gave a tumour inhibition rate of 85.4% and a mean tumour weight of 0.22 g. Besides, the “tumour growth (tumour volume)” value in the data set on B16F10 melanoma tumour is on record as “significantly suppressed tumour growth”. The IC50 in the data set with B16F10 melanoma cells worked out at 2.58 µg/mL (≈ 4.08 µM). For the same molecule, in data set [2], the HUVEC tube formation entry is “markedly inhibited”.

Regarding Glycosyl oleanolate, the “detection in plasma” value in data set [1] is reported as “not detected”.

The values are drawn from publication PMC6721120, “Inhibitory Effects of Ginsenoside Ro on the Growth of B16F10 Melanoma via Its Metabolites” (Molecules, 2019).
